Test results: PubChem BioAssay (NCI)
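96-well plates; 48 h exposure; 5 concentrations. Endpoints by linear interpolation between flanking doses. Not reached: highest tested concentration assigned. Here, GI50 denotes the concentration required for 50% inhibition of growth. TGI denotes the concentration required for complete inhibition of growth.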

Tests used:
Assay in all cases: NCI anticancer screen, dose series, 48 h
CCRF-CEM leukemia = tested on: CCRF-CEM leukemia
SR leukemia = tested on: SR leukemia
HOP-92 NSCLC = tested on: HOP-92 NSCLC
UACC-62 melanoma = tested on: UACC-62 melanoma
EKVX NSCLC = tested on: EKVX NSCLC
SK-MEL-28 melanoma = tested on: SK-MEL-28 melanoma
NCI-H460 lung = tested on: NCI-H460 lung
UO-31 renal = tested on: UO-31 renal
U251 CNS = tested on: U251 CNS
HCT-116 colon = tested on: HCT-116 colon

## CCc1c[nH]c2ncnc(N3CC[C@@](N)(CNC(=O)c4ccc(F)cc4F)C3)c12
CCRF-CEM leukemia
  GI50: 28.3 µM
  TGI: > 96.4 µM
SR leukemia
  GI50: 16.4 µM
  TGI: 44.1 µM
HOP-92 NSCLC
  GI50: 20.9 µM
  TGI: > 100 µM
UACC-62 melanoma
  GI50: 33 µM
  TGI: > 100 µM
EKVX NSCLC
  GI50: 35 µM
  TGI: > 100 µM
SK-MEL-28 melanoma
  GI50: 45.4 µM
  TGI: > 100 µM
NCI-H460 lung
  GI50: 35 µM
  TGI: > 100 µM
UO-31 renal
  GI50: 33.7 µM
  TGI: > 100 µM
U251 CNS
  GI50: 46.4 µM
  TGI: > 100 µM
HCT-116 colon
  GI50: 25 µM
  TGI: > 100 µM

## O=[N+]([O-])c1ccc(CS(=O)Cc2ccccc2)cc1 (stereo not given)
CCRF-CEM leukemia
  TGI: > 100 µM
SR leukemia
  TGI: > 100 µM
HOP-92 NSCLC
  TGI: > 100 µM
UACC-62 melanoma
  TGI: > 100 µM
EKVX NSCLC
  TGI: > 100 µM
SK-MEL-28 melanoma
  TGI: > 100 µM
NCI-H460 lung
  TGI: > 100 µM
UO-31 renal
  TGI: > 100 µM
U251 CNS
  TGI: > 100 µM
HCT-116 colon
  TGI: > 100 µM

## C=C[C@]1(C)C=C2C(=O)[C@@]3(O)OC[C@@]4(CCCC(C)(C)C43O)C2(O)C(O)C1 (stereo not given in full)
CCRF-CEM leukemia
  GI50: 1.83 µM
  TGI: 16.5 µM
SR leukemia
  GI50: 1.97 µM
  TGI: 24.9 µM
HOP-92 NSCLC
  GI50: 5.13 µM
  TGI: 18.5 µM
UACC-62 melanoma
  GI50: 7.77 µM
  TGI: 21.5 µM
EKVX NSCLC
  GI50: 15 µM
  TGI: 31.3 µM
SK-MEL-28 melanoma
  GI50: 4.26 µM
  TGI: 15.6 µM
NCI-H460 lung
  GI50: 12.5 µM
  TGI: 28.2 µM
UO-31 renal
  GI50: 1.34 µM
  TGI: 3 µM
U251 CNS
  GI50: 13.6 µM
  TGI: 28.1 µM
HCT-116 colon
  GI50: 1.18 µM
  TGI: 2.46 µM

## O=C(Nc1ccc2c(c1)oc(=O)c1ccccc12)C(Cl)Cl
CCRF-CEM leukemia
  TGI: > 100 µM
SR leukemia
  TGI: > 100 µM
HOP-92 NSCLC
  TGI: > 100 µM
UACC-62 melanoma
  TGI: > 100 µM
EKVX NSCLC
  TGI: > 100 µM
SK-MEL-28 melanoma
  TGI: > 100 µM
NCI-H460 lung
  TGI: 92.5 µM
UO-31 renal
  TGI: > 100 µM
U251 CNS
  TGI: > 100 µM
HCT-116 colon
  TGI: > 100 µM

## CCOC(=O)c1c(C)n(Cc2ccc(Cl)cc2Cl)c2c1cc1oc(=O)c(=O)n3c(Cc4ccccc4)nc2c13
CCRF-CEM leukemia
  GI50: 1.31 µM
  TGI: 3.19 µM
SR leukemia
  GI50: 0.378 µM
  TGI: 2.38 µM
HOP-92 NSCLC
  GI50: 1.56 µM
  TGI: 3.81 µM
UACC-62 melanoma
  GI50: 14.5 µM
  TGI: 28.2 µM
EKVX NSCLC
  GI50: 8.05 µM
  TGI: 20.8 µM
SK-MEL-28 melanoma
  GI50: 11 µM
  TGI: 24.9 µM
NCI-H460 lung
  GI50: 2.68 µM
  TGI: 7.06 µM
UO-31 renal
  GI50: 3.77 µM
  TGI: 15 µM
U251 CNS
  GI50: 2.45 µM
  TGI: 6.5 µM
HCT-116 colon
  GI50: 2.05 µM
  TGI: 4.87 µM

## O=C1c2ccccc2C(=O)C1C(c1ccc([N+](=O)[O-])cc1)C1C(=O)c2ccccc2C1=O
CCRF-CEM leukemia
  TGI: > 100 µM
SR leukemia
  TGI: > 100 µM
HOP-92 NSCLC
  TGI: > 100 µM
UACC-62 melanoma
  TGI: > 100 µM
EKVX NSCLC
  TGI: > 100 µM
SK-MEL-28 melanoma
  TGI: 93.6 µM
NCI-H460 lung
  TGI: > 100 µM
UO-31 renal
  TGI: > 100 µM
U251 CNS
  TGI: > 100 µM
HCT-116 colon
  TGI: 49.3 µM
